Experimental findings from PubChem BioAssay (NCI) are described below.

Common to all, as to assay: NCI tumour cell line growth inhibition, 48 h
The test system of assay [1] is DLD-1 colon.
The subject of assay [2] is DMS 114 small cell lung.
The test system of assay [3] is HOP-18 NSCLC.
Assay [4] concerns M19-MEL melanoma.
For assay [5], the system named is P388 leukemia.
The test system of assay [6] is P388/ADR leukemia.
Assay [7] concerns SN12K1 renal.
The test system of assay [8] is XF 498 CNS.
Assay [9] relates to LXFL 529 NSCLC.

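Five compound concentrations were applied to cells in 96-well plates for 48 hours; endpoints were derived by simple linear interpolation of the resulting dose-response curve. TGI: concentration producing complete growth inhibition.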

As for `C#CCn1c(=O)c(C#N)c(O)c2cc3ccccc3nc21`, the TGI in assay [1], in assay [2], in assay [3], in assay [4], in [5] and in [6] was more than 100 µM in each case. Besides, the TGI in assay [7] and in assay [8] was more than 100 µM in each case.

For the compound `COc1cc2c(cc1OC)-c1c3c(cc4c1[C@@H](C2)N(C)CC4)OCO3`, the TGI is 49.5 µM in [1]; 24.8 µM in assay [2]; 52 µM in assay [3]; 24.1 µM in [4]; 27.1 µM in [5]; 23.3 µM in assay [6]. The same compound registered a TGI in assay [7] of 22.3 µM.

`NCCCCNCCCNC(=O)c1nc(-c2csc(CCN)n2)sc1Cl`: the TGI is more than 100 µM in assay [1]; more than 100 µM in assay [2]; 45.6 µM in assay [9]; more than 100 µM in [4]; more than 100 µM in assay [8].

`CC1(Cl)CC2C(CC1Sc1nnnn1-c1ccccc1)C2(C)C` (centres undefined): the TGI in assay [1], in assay [2], in assay [9] and in assay [4] was more than 100 µM each time.
